Measured values taken from the kinase profiling compilation of Christmann-Franck et al. (2016).

Key:
Experiment in all cases: radiometric filter-binding kinase assay
FGFR1 (human) = FGFR1 (human) (UniProt P11362)
[1] = tested on: AKT2 (human), P31751 [S474D]; conditions: compound 10.0 µM
LCK (mouse) = conditions: accession and sequence are those of the human protein
PIM2 (human) = PIM2 (human) (UniProt Q9P1W9)
PHKG1 (human) = PHKG1 (human) (UniProt Q16816)
NEK2 (human) = NEK2 (human) (UniProt P51955)
NEK6 (human) = NEK6 (human) (UniProt Q9HC98)
EPHA2 (human) = EPHA2 (human) (UniProt P29317)
[2] = tested on: RPS6KB1 (human), P23443 [T412E]
MKNK1 (human) = MKNK1 (human) (UniProt Q9BUB5)
SYK (human) = SYK (human) (UniProt P43405)
TBK1 (human) = TBK1 (human) (UniProt Q9UHD2)
MAPK11 (human) = MAPK11 (human) (UniProt Q15759)
[3] = molecular target: STK11 CAB39 STRADA (human) (UniProt Q9Y376+Q7RTN6+Q15831)
ROCK2 (rat) = conditions: accession and sequence are those of the human protein
MAP3K9 (human) = MAP3K9 (human) (UniProt P80192)
SRPK1 (human) = SRPK1 (human) (UniProt Q96SB4)
TTK (human) = TTK (human) (UniProt P33981)
PKN2 (human) = PKN2 (human) (UniProt Q16513)
INSR (human) = INSR (human) (UniProt P06213)
CSNK2A1 (human) = CSNK2A1 (human) (UniProt P68400)
MARK2 (human) = MARK2 (human) (UniProt Q7KZI7)
[4] = tested on: PAK2 (human), Q13177 [T402E]
MAPK10 (human) = MAPK10 (human) (UniProt P53779)
MAP2K1 (human) = MAP2K1 (human) (UniProt Q02750)
MAPK13 (human) = MAPK13 (human) (UniProt O15264)
MAP2K6 (human) = MAP2K6 (human) (UniProt P52564)
IRAK4 (human) = IRAK4 (human) (UniProt Q9NWZ3)
MYLK (human) = MYLK (human) (UniProt Q15746)
[5] = tested on: AKT1 (human), P31749 [S473D]
EPHB1 (human) = EPHB1 (human) (UniProt P54762)
PIM3 (human) = PIM3 (human) (UniProt Q86V86)
INSRR (human) = INSRR (human) (UniProt P14616)
DYRK3 (human) = DYRK3 (human) (UniProt O43781)
GSK3B (human) = GSK3B (human) (UniProt P49841)
MARK1 (human) = MARK1 (human) (UniProt Q9P0L2)
Chain of MARK1 (human) (Q9P0L2 whole entry, looked up): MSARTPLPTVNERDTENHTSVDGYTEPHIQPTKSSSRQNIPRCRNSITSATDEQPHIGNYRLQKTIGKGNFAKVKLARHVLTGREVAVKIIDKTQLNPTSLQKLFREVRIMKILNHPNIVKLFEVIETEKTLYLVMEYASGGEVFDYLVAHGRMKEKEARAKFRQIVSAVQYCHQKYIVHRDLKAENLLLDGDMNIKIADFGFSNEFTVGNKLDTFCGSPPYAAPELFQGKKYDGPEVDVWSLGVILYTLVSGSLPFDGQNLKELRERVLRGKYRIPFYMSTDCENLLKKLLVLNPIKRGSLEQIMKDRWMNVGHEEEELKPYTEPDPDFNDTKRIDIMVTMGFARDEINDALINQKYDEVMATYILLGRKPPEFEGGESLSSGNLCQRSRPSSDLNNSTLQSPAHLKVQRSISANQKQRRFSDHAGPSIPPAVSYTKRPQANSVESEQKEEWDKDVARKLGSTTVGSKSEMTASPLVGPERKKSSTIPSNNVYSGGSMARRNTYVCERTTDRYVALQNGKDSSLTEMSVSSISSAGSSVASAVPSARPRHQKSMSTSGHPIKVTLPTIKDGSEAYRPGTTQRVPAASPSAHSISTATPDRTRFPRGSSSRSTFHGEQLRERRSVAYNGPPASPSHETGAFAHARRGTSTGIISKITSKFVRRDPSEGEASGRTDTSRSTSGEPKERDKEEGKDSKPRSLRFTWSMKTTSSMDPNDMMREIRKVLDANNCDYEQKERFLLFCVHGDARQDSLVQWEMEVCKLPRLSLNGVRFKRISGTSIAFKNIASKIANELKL

Chain of MAPK13 (human) (O15264 whole entry, looked up): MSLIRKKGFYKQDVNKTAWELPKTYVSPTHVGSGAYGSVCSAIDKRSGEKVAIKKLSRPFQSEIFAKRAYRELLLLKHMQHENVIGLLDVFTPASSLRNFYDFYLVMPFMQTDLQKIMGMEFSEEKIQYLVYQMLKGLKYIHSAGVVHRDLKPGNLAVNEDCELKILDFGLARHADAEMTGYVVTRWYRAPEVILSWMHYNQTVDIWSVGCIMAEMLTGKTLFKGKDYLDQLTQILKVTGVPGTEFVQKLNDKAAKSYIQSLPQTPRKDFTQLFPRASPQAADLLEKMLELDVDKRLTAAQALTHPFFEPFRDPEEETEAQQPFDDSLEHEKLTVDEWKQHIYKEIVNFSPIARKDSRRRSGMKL
Chain of MAPK11 (human) (Q15759 whole entry, looked up): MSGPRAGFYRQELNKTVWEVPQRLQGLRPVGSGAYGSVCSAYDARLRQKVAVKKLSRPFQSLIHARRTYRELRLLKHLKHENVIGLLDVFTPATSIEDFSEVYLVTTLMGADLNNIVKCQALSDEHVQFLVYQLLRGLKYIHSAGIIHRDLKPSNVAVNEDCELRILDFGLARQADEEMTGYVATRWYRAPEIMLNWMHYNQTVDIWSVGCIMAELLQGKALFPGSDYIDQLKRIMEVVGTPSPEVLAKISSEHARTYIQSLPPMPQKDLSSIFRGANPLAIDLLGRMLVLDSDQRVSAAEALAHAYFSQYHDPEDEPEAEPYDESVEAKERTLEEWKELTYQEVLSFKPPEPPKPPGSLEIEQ
Chain of GSK3B (human) (P49841 whole entry, looked up): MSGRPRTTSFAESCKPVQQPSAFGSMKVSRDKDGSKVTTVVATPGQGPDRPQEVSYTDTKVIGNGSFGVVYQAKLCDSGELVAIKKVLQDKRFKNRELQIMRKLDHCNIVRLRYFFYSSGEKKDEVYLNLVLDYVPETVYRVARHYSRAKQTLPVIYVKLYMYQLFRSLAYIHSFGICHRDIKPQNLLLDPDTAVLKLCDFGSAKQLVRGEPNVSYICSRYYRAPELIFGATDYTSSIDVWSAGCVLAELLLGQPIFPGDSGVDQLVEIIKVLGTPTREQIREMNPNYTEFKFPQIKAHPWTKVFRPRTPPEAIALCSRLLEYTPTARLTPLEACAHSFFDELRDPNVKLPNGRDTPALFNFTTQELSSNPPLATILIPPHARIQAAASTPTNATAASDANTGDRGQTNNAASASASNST
Chain of MAP2K6 (human) (P52564 whole entry, looked up): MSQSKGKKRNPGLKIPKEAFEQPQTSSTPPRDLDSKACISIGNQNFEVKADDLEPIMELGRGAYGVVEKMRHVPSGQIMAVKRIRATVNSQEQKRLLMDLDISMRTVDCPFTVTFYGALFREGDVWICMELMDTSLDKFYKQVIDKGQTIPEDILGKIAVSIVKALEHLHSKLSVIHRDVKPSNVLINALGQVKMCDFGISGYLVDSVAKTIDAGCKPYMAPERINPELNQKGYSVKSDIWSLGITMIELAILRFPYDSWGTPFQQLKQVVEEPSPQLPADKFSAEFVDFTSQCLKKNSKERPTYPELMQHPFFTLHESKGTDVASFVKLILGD
Chain of STK11 CAB39 STRADA (human) (Q15831 whole entry, looked up): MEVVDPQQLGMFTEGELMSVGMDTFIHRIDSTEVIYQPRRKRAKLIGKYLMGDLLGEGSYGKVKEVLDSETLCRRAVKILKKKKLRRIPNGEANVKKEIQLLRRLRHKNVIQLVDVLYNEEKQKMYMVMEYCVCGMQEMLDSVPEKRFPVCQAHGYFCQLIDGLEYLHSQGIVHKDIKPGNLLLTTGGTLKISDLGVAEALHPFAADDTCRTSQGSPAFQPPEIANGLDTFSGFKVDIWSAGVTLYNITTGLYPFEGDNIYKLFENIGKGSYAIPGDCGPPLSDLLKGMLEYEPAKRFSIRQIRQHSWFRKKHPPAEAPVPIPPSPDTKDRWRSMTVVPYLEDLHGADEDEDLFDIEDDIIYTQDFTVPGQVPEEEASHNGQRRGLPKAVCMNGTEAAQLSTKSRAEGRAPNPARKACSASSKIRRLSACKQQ
Chain of STK11 CAB39 STRADA (human) (Q7RTN6 whole entry, looked up): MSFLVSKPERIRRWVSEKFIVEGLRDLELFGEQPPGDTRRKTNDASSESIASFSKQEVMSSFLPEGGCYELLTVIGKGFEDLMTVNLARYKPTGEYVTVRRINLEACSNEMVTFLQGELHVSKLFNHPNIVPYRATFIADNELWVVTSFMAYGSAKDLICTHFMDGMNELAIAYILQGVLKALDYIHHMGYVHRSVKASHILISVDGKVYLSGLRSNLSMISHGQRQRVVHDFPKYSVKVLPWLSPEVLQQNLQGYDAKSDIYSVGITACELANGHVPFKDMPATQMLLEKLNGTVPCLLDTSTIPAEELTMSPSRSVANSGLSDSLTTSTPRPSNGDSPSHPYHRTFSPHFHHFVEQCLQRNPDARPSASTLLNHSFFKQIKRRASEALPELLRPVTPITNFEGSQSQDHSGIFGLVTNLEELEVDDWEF
Chain of STK11 CAB39 STRADA (human) (Q9Y376 whole entry, looked up): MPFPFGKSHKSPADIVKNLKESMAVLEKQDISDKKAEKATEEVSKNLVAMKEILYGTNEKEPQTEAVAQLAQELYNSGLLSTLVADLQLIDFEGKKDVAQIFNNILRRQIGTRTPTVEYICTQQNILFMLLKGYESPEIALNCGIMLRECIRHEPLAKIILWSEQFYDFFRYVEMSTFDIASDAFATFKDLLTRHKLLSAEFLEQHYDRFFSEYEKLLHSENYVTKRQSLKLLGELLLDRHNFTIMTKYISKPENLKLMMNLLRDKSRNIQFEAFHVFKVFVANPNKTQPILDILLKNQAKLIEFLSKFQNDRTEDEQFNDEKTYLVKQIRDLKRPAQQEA
Chain of MARK2 (human) (Q7KZI7 whole entry, looked up): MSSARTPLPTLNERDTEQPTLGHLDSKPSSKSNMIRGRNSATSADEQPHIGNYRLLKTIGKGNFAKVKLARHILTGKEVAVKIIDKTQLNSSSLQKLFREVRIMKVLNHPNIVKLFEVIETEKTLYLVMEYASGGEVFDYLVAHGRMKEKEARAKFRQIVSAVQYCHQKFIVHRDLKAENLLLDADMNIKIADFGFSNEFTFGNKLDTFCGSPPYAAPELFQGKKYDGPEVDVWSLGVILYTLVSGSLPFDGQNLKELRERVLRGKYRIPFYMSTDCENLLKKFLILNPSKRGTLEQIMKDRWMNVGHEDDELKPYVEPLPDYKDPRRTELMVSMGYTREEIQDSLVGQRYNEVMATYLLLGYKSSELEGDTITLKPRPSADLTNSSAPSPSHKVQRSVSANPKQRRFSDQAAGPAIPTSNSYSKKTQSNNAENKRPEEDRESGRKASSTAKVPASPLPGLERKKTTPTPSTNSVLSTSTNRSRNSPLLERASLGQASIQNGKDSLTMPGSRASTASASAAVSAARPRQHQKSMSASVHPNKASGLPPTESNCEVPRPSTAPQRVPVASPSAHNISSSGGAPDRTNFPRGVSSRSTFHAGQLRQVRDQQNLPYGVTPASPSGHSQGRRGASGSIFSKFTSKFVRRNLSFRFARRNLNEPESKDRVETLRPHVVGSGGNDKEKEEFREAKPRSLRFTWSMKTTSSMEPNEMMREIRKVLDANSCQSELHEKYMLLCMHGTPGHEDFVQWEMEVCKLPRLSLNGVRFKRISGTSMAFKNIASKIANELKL
Chain of PIM2 (human) (Q9P1W9 whole entry, looked up): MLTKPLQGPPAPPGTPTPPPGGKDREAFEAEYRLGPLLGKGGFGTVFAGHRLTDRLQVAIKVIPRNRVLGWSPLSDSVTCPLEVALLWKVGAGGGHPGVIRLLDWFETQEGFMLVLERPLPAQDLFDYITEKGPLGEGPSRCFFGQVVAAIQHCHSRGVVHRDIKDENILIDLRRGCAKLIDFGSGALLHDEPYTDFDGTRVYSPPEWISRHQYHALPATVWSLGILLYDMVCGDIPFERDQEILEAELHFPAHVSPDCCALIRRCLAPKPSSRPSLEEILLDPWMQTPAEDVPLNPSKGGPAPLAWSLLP

Q: Which residual activity (FGFR1 (human); compound 10.0 µM) does the source give for `Cc1ccc2c(c1)C(=O)[C@@]1(O)CCN(c3ccccc3)C1=N2` here?
A: 118%

Q: What about the residual activity [1] of the same compound?
A: 74%

Q: And the residual activity (LCK (mouse); compound 10.0 µM)?
A: 106%

Q: And the residual activity (LCK (mouse); compound 100.0 µM)?
A: 72%

Q: And the residual activity (PIM2 (human); compound 10.0 µM)?
A: 93%

Q: And the residual activity (PHKG1 (human); compound 10.0 µM)?
A: 114%

Q: What about the residual activity (PHKG1 (human); compound 100.0 µM) of the same compound?
A: 86%

Q: And the residual activity (NEK2 (human); compound 10.0 µM)?
A: 77%

Q: What about the residual activity (NEK2 (human); compound 100.0 µM) of the same compound?
A: 82%

Q: And the residual activity (NEK6 (human); compound 10.0 µM)?
A: 107%

Q: And the residual activity (NEK6 (human); compound 100.0 µM)?
A: 85%

Q: And the residual activity (EPHA2 (human); compound 10.0 µM)?
A: 109%

Q: And the residual activity ([2]; compound 10.0 µM)?
A: 92%

Q: And the residual activity ([2]; compound 100.0 µM)?
A: 71%

Q: And the residual activity (MKNK1 (human); compound 10.0 µM)?
A: 97%

Q: And the residual activity (SYK (human); compound 10.0 µM)?
A: 105%

Q: And the residual activity (TBK1 (human); compound 10.0 µM)?
A: 94%

Q: And the residual activity (MAPK11 (human); compound 10.0 µM)?
A: 82%

Q: And the residual activity (MAPK11 (human); compound 100.0 µM)?
A: 71%

Q: What about the residual activity ([3]; compound 10.0 µM) of the same compound?
A: 81%

Q: What about the residual activity (ROCK2 (rat); compound 10.0 µM) of the same compound?
A: 77%

Q: And the residual activity (ROCK2 (rat); compound 100.0 µM)?
A: 76%

Q: What about the residual activity (MAP3K9 (human); compound 10.0 µM) of the same compound?
A: 101%

Q: What about the residual activity (SRPK1 (human); compound 10.0 µM) of the same compound?
A: 88%

Q: What about the residual activity (TTK (human); compound 10.0 µM) of the same compound?
A: 87%

Q: What about the residual activity (PKN2 (human); compound 10.0 µM) of the same compound?
A: 95%

Q: What about the residual activity (INSR (human); compound 10.0 µM) of the same compound?
A: 95%

Q: What about the residual activity (CSNK2A1 (human); compound 10.0 µM) of the same compound?
A: 110%

Q: What about the residual activity (CSNK2A1 (human); compound 100.0 µM) of the same compound?
A: 101%

Q: And the residual activity (MARK2 (human); compound 10.0 µM)?
A: 93%

Q: And the residual activity ([4]; compound 10.0 µM)?
A: 87%

Q: And the residual activity (MAPK10 (human); compound 10.0 µM)?
A: 99%

Q: And the residual activity (MAP2K1 (human); compound 10.0 µM)?
A: 89%

Q: And the residual activity (MAP2K1 (human); compound 100.0 µM)?
A: 99%

Q: What about the residual activity (MAPK13 (human); compound 10.0 µM) of the same compound?
A: 81%

Q: What about the residual activity (MAPK13 (human); compound 100.0 µM) of the same compound?
A: 116%

Q: And the residual activity (MAP2K6 (human); compound 10.0 µM)?
A: 94%

Q: What about the residual activity (IRAK4 (human); compound 10.0 µM) of the same compound?
A: 86%

Q: And the residual activity (MYLK (human); compound 10.0 µM)?
A: 74%

Q: And the residual activity ([5]; compound 10.0 µM)?
A: 95%

Q: And the residual activity ([5]; compound 100.0 µM)?
A: 88%

Q: And the residual activity (EPHB1 (human); compound 10.0 µM)?
A: 97%

Q: And the residual activity (PIM3 (human); compound 10.0 µM)?
A: 83%

Q: What about the residual activity (INSRR (human); compound 10.0 µM) of the same compound?
A: 88%

Q: What about the residual activity (DYRK3 (human); compound 10.0 µM) of the same compound?
A: 99%

Q: What about the residual activity (GSK3B (human); compound 10.0 µM) of the same compound?
A: 88%

Q: And the residual activity (GSK3B (human); compound 100.0 µM)?
A: 66%

Q: What about the residual activity (MARK1 (human); compound 10.0 µM) of the same compound?
A: 96%

Q: Which results are given for `CC(C)(C#N)c1ccc(N2C(=O)OCc3cnc4ccc(-c5cnc6ccccc6c5)cc4c32)cc1`?
A: residual activity (FGFR1 (human); compound 1.0 µM): 98%; residual activity (FGFR1 (human); compound 10.0 µM): 93%; residual activity [1]: 100%; residual activity (LCK (mouse); compound 1.0 µM): 78%; residual activity (LCK (mouse); compound 10.0 µM): 98%; residual activity (PIM2 (human); compound 1.0 µM): 91%; residual activity (PIM2 (human); compound 10.0 µM): 96%; residual activity (PHKG1 (human); compound 1.0 µM): 97%; residual activity (PHKG1 (human); compound 10.0 µM): 92%; residual activity (NEK2 (human); compound 1.0 µM): 108%; residual activity (NEK2 (human); compound 10.0 µM): 103%; residual activity (NEK6 (human); compound 1.0 µM): 83%; residual activity (NEK6 (human); compound 10.0 µM): 40%; residual activity (EPHA2 (human); compound 1.0 µM): 69%; residual activity (EPHA2 (human); compound 10.0 µM): 81%; residual activity ([2]; compound 1.0 µM): 91%; residual activity ([2]; compound 10.0 µM): 96%; residual activity (MKNK1 (human); compound 1.0 µM): 89%; residual activity (MKNK1 (human); compound 10.0 µM): 90%; residual activity (SYK (human); compound 1.0 µM): 105%; residual activity (SYK (human); compound 10.0 µM): 76%; residual activity (TBK1 (human); compound 1.0 µM): 83%; residual activity (TBK1 (human); compound 10.0 µM): 96%; residual activity (MAPK11 (human); compound 1.0 µM): 89%; residual activity (MAPK11 (human); compound 10.0 µM): 103%; residual activity ([3]; compound 1.0 µM): 87%; residual activity ([3]; compound 10.0 µM): 85%; residual activity (ROCK2 (rat); compound 1.0 µM): 120%; residual activity (ROCK2 (rat); compound 10.0 µM): 104%; residual activity (MAP3K9 (human); compound 1.0 µM): 91%; residual activity (MAP3K9 (human); compound 10.0 µM): 89%; residual activity (SRPK1 (human); compound 1.0 µM): 90%; residual activity (SRPK1 (human); compound 10.0 µM): 89%; residual activity (TTK (human); compound 1.0 µM): 91%; residual activity (TTK (human); compound 10.0 µM): 86%; residual activity (PKN2 (human); compound 1.0 µM): 90%; residual activity (PKN2 (human); compound 10.0 µM): 84%; residual activity (INSR (human); compound 1.0 µM): 96%; residual activity (INSR (human); compound 10.0 µM): 96%; residual activity (CSNK2A1 (human); compound 1.0 µM): 97%; residual activity (CSNK2A1 (human); compound 10.0 µM): 97%; residual activity (MARK2 (human); compound 1.0 µM): 101%; residual activity (MARK2 (human); compound 10.0 µM): 95%; residual activity ([4]; compound 1.0 µM): 95%; residual activity ([4]; compound 10.0 µM): 107%; residual activity (MAPK10 (human); compound 1.0 µM): 87%; residual activity (MAPK10 (human); compound 10.0 µM): 77%; residual activity (MAP2K1 (human); compound 1.0 µM): 78%; residual activity (MAP2K1 (human); compound 10.0 µM): 96%; residual activity (MAPK13 (human); compound 1.0 µM): 96%; residual activity (MAPK13 (human); compound 10.0 µM): 95%; residual activity (MAP2K6 (human); compound 1.0 µM): 101%; residual activity (MAP2K6 (human); compound 10.0 µM): 92%; residual activity (IRAK4 (human); compound 1.0 µM): 90%; residual activity (IRAK4 (human); compound 10.0 µM): 89%; residual activity (MYLK (human); compound 1.0 µM): 87%; residual activity (MYLK (human); compound 10.0 µM): 100%; residual activity ([5]; compound 1.0 µM): 102%; residual activity ([5]; compound 10.0 µM): 117%; residual activity (EPHB1 (human); compound 1.0 µM): 93%; residual activity (EPHB1 (human); compound 10.0 µM): 119%; residual activity (PIM3 (human); compound 1.0 µM): 67%; residual activity (PIM3 (human); compound 10.0 µM): 55%; residual activity (INSRR (human); compound 1.0 µM): 74%; residual activity (INSRR (human); compound 10.0 µM): 77%; residual activity (DYRK3 (human); compound 1.0 µM): 57%; residual activity (DYRK3 (human); compound 10.0 µM): 64%; residual activity (GSK3B (human); compound 1.0 µM): 74%; residual activity (GSK3B (human); compound 10.0 µM): 89%; residual activity (MARK1 (human); compound 1.0 µM): 96%; residual activity (MARK1 (human); compound 10.0 µM): 114%
